Test results: patent US4551547A, “Biocidal 2-aryl-1, 3-cyclopentanedione enol ester compounds” (Union Carbide Corporation, priority 1983, dated 1985)
Converted amounts (≈) assume the structure as drawn.

How the values were obtained:
[1] = system: two-spotted mite (adults and nymphal stages); experiment: Mite Foliage Spray Test (adults and nymphs); type: in vivo, Tetranychus urticae (Koch); set-up: key to Miticidal, Adult: A: Excellent Control; B: Partial Control; No Control; settings: for Miticidal, Adult: Table II, mortality count after four days; for LC50: Tetranychus urticae, foliar, Table III, ppm required for a 50 percent kill of mites, read-out: Miticidal LD50, Adult
Protocol: Suspensions of the test compounds were prepared by dissolving one gram of compound in 50 milliliters of acetone in which had been dissolved 0.1 gram (10 percent of the weight of compound) of an alkylphenoxyethanol sufactant, as an emulsifying or dispersing agent. The resulting solution was mixed into 160 milliliters of water to give roughly 200 milliliters of a suspension containing the compound in finely divided form. The thus prepared stock suspension contained 0.5 percent by weight of compound. The test concentrations employed in the tests described below were obtained by diluting the stock suspension with water. The test procedures were as follows: Adults and nymphal stages of the two-spotted mite (Tetranychus urticae (Koch)), reared on Tender-green beam plants at 80±5° F. and 50±5 percent relative humidity, were the tests organisms. Infested leaves from a stock culture were placed of the primary leaves of two bean plants six to eight inches in height, growing in a two-and-a-half inch clay pot. 150-200 Mites, a sufficient number for testing, transferred from the excised leaves to the fresh plants in a period of twenty-four hours. Following the twenty-four hour transfer period, the excised leaves were removed from the infested plants. The test compounds were formulated by diluting the stock suspension with water to provide suspensions containing the desired amount of test compound per million parts of final formulation. The potted plants (one pot per compound) were placed on a revolving turntable and sprayed with 100-110 milliliters of tests compound formulation by use of a DeVilbis spray gun set at 40 psi, air pressure. This application, which lasted 30 seconds, was sufficient to wet the plants to run-off. As a control, 100-110 milliliters of a water solution containing acetone and emulsifier in the same concentrations as the test compound formulation, but containing no test compound, were also sprayed on infested plants. The sprayed plants were held at 80±5° F. and 50±5 percent relative humidity for four days, after which, a mortality count of motile forms was made on the leaves of the test plants. Any individual which was capable of locomotion upon prodding was considered living. In these tests the pesticidal activity of the compounds against mites and mite eggs was rated as follows: Tests were conducted in accordance with the procedures given at pages 17 to 21 supra. The results are expressed in the same manner as used in Table II, except with respect to miticidal activity. For mite adult and mite egg comparison purposes, results are given in parts per million (ppm) required for a 50 percent kill of mites or eggs, respectively.

Bean = experiment: Post-emergent herbicidal test, bean; type: in vivo; set-up: key: 1: no perceptible injury; 2: intermediate degrees of injury; 3: intermediate degrees of injury; 4: intermediate degrees of injury; 5: the plant was dead; settings: 2500 parts per million, after ten days; for Post-emergent Herbicidal, Bean: Table II; for Post Emergent Herbicidal, Bean: Table III
Protocol: (§1) Suspensions of the test compounds were prepared by dissolving one gram of compound in 50 milliliters of acetone in which had been dissolved 0.1 gram (10 percent of the weight of compound) of an alkylphenoxyethanol sufactant, as an emulsifying or dispersing agent. The resulting solution was mixed into 160 milliliters of water to give roughly 200 milliliters of a suspension containing the compound in finely divided form. The thus prepared stock suspension contained 0.5 percent by weight of compound. The test concentrations employed in the tests described below were obtained by diluting the stock suspension with water. The test procedures were as follows:
(§2) Experiments were also conducted to determine the phytotoxicity of representative compositions with respect to healthy fresh plants. Solutions of the compounds were prepared as described above to provide a concentration of 2500 parts per million of the test compound. The test plants were sprayed in accordance with the procedure described above for the Mite Foliage Spray Test so as to deliver approximately 100 milliliters of test solutions to the leaves of each plant tested. The sprayed plants and controls were set aside for approximately one hour to allow the solutions to dry and were then placed in the greenhouse. After ten days the plants were visually inspected to determine the extent of foliage injury. A rating of 1 indicates no perceptible injury; 5 indicates the plant was dead and ratings of 2, 3 and 4 indicate intermediate degrees of injury based upon the number and extent to which leaves were injured.

Corn = experiment: Post-emergent herbicidal test, corn; type: in vivo; set-up: key: 1: no perceptible injury; 2: intermediate degrees of injury; 3: intermediate degrees of injury; 4: intermediate degrees of injury; 5: the plant was dead; settings: 2500 parts per million, after ten days; for Post-emergent Herbicidal, Corn: Table II; for Post Emergent Herbicidal, Corn: Table III
Protocol: as §1, §2

Tomato = experiment: Post-emergent herbicidal test, tomato; type: in vivo; set-up: key: 1: no perceptible injury; 2: intermediate degrees of injury; 3: intermediate degrees of injury; 4: intermediate degrees of injury; 5: the plant was dead; settings: 2500 parts per million, after ten days; for Post-emergent Herbicidal, Tomato: Table II; for Post Emergent Herbicidal, Tomato: Table III
Protocol: as §1, §2

Cotton = experiment: Post-emergent herbicidal test, cotton; type: in vivo; set-up: key: 1: no perceptible injury; 2: intermediate degrees of injury; 3: intermediate degrees of injury; 4: intermediate degrees of injury; 5: the plant was dead; settings: 2500 parts per million, after ten days; for Post-emergent Herbicidal, Cotton: Table II; for Post Emergent Herbicidal, Cotton: Table III
Protocol: as §1, §2

Perennial rye grass = experiment: Preliminary herbicide seed germination test (pre-emergent), perennial rye grass; type: in vivo, Solium perenne; set-up: key: 5: no seedling emerged; 4: few seedlings emerged and/or very severe stunting; 3: moderate reduction in stand and/or moderate stunting.; 2: very slight reduction in stand and/or slight stunting; 1: no injury, seedlings appear no different with respect to stand or growth than untreated controls; settings: ten to twelve days after application
Protocol: as §1
(§3) The following seeds were used in this test:
Perennial rye grass--Solium perenne
(§4) Two […] mixtures were prepared as follows:
(§5) Each of the above mixtures was rolled separately in 5 gallon containers for approximately one-half hour on ball mill to insure uniform mixing of seeds and soil. For each compound four 3-inch pots were filled with soil to within 11/2 inches of top of pots. To two of these pots were added 70 cc. of Mixture I. To the remaining 2 pots were added 70 cc. of Mixture II. The seed-soil mixture was tamped firmly, and the pots were removed to the greenhouse and watered lightly. About 2 hours after planting, 25 milliliters of the test formulation were added to one pot containing Mixture I and one pot containing Mixture II. An equal volume of a water solution containing acetone and an emulsifier in the same concentration as the herbicidal mixture but without the candidate herbicide was also added to each of the soil-seed mixtures. These pots are used as check or control units. The test compounds were formulated by diluting the stock suspension with water to obtain the desired concentration of the compound in parts per million of the final formulation. Each compound was tested at the same concentration. […] Ratings were made according to the following designations: […]

Crabgrass = experiment: Preliminary herbicide seed germination test (pre-emergent), crabgrass; type: in vivo, Digitaria sanguinalis; set-up: key: 5: no seedling emerged; 4: few seedlings emerged and/or very severe stunting; 3: moderate reduction in stand and/or moderate stunting.; 2: very slight reduction in stand and/or slight stunting; 1: no injury, seedlings appear no different with respect to stand or growth than untreated controls; settings: ten to twelve days after application
Protocol: as §1, §3
Crabgrass--Digitaria sanguinalis
as §4, §5

[2] = system: Red root pigweed (Amaranthus); experiment: Preliminary herbicide seed germination test (pre-emergent), red root pigweed; type: in vivo, Amaranthus retroflexus; set-up: key: 5: no seedling emerged; 4: few seedlings emerged and/or very severe stunting; 3: moderate reduction in stand and/or moderate stunting.; 2: very slight reduction in stand and/or slight stunting; 1: no injury, seedlings appear no different with respect to stand or growth than untreated controls; settings: ten to twelve days after application
Protocol: as §1, §3
Red root pigweed--Amaranthus retroflexus
as §4, §5

Row | Compound | Miticidal, Adult [1] | Post-emergent Herbicidal, Bean (Bean) | Post-emergent Herbicidal, Corn (Corn) | Post-emergent Herbicidal, Tomato (Tomato) | Post-emergent Herbicidal, Cotton (Cotton) | Pre-emergent Herbicidal, Rye (Perennial rye grass; Table II) | Pre-emergent Herbicidal, Crabgrass (Crabgrass; Table II) | Pre-emergent Herbicidal, Amaranthus ([2]; Table II) | LC50 [1] | Post Emergent Herbicidal, Bean (Bean) | Post Emergent Herbicidal, Corn (Corn) | Post Emergent Herbicidal, Tomato (Tomato) | Post Emergent Herbicidal, Cotton (Cotton) | Pre-emergent Herbicidal, Rye (Perennial rye grass; Table III) | Pre-emergent Herbicidal, Crabgrass (Crabgrass; Table III) | Pre-emergent Herbicidal, Amaranthus ([2]; Table III)
1 | CCCCC(CC)C(=O)OC1=C(c2cc(C)ccc2C)C(=O)C2CCCCC12 (stereo not shown) [Compound 30, 3-(2-ethylhexanoyloxy)-2-(2',5'-dimethylphenyl)-4,5,6,7,8,9-hexahydro-2-indenone] | A | 1 | 2 | 1 | 1 | 1 | 1 | 1 | – | – | – | – | – | – | – | –
2 | Cc1ccc(C)c(C2=C(OC(=O)C(C)(C)C)C3CCCCC3C2=O)c1 (stereo not shown) [Compound 31] | A | 1 | 2 | 1 | 1 | 1 | 1 | 1 | – | – | – | – | – | – | – | –
3 | CCCCCCCCCC(=O)OC1=C(c2cc(C)ccc2C)C(=O)C2CCCCC12 (stereo not shown) [Compound 32] | A | 1 | 2 | 1 | 1 | 1 | 1 | 1 | – | – | – | – | – | – | – | –
4 | CCCCCCCCCCCCCCCC(=O)OC1=C(c2cc(C)ccc2C)C(=O)C2CCCCC12 (stereo not shown) [Compound 33] | A | 1 | 1 | 1 | 1 | 1 | 1 | 1 | – | – | – | – | – | – | – | –
5 | CCCCCCCCCC(=O)OC1=C(c2ccccc2C)C(=O)C2CCCCC12 (stereo not shown) [drawing 15] | – | – | – | – | – | – | – | – | 2 µg/mL (≈ 5.04 µM) | 2 | 5 | 1 | 3 | 5 | 3 | 3
6 | CCCCCCCCCCCCCCCC(=O)OC1=C(c2ccccc2C)C(=O)C2CCCCC12 (stereo not shown) [drawing 17] | – | – | – | – | – | – | – | – | 20 µg/mL (≈ 41.6 µM) | 1 | 2 | 1 | 2 | 4 | 3 | 2
7 | CCCCCCCCCC(=O)OC1=C(c2cc(C)ccc2C)C(=O)C2CCCCC12 (stereo not shown) [drawing 19] | – | – | – | – | – | – | – | – | 25 µg/mL (≈ 60.9 µM) | 1 | 2 | 1 | 1 | 1 | 1 | 1
8 | CCCCC(CC)C(=O)OC1=C(c2ccccc2C)C(=O)CC1 (stereo not shown) [drawing 21] | – | – | – | – | – | – | – | – | 220 µg/mL (≈ 700 µM) | 2 | 2 | 2 | 2 | 5 | 3 | 3
9 | CCCCC(CC)C(=O)OC1=C(c2ccccc2C)C(=O)C2CCCCC12 (stereo not shown) [drawing 22] | – | – | – | – | – | – | – | – | 7 µg/mL (≈ 19 µM) | 1 | 5 | 1 | 2 | 3 | 2 | 2
10 | Cc1ccccc1C1=C(OC(=O)C(C)(C)C)C2CCCCC2C1=O (stereo not shown) [drawing 24] | – | – | – | – | – | – | – | – | 15 µg/mL (≈ 46 µM) | 2 | 5 | 1 | 3 | 5 | 3 | 2
11 | CCCCCCCCCC(=O)OC1=C(c2ccccc2C)C(=O)c2ccccc21 [reference compound] | – | – | – | – | – | – | – | – | 500 µg/mL (≈ 1280 µM) | 1 | 1 | 1 | 1 | 1 | 1 | 1
12 | CCCCCCCCCCCCCCCC(=O)OC1=C(c2ccccc2C)C(=O)c2ccccc21 [reference compound] | – | – | – | – | – | – | – | – | 500 µg/mL (≈ 1050 µM) | 1 | 1 | 1 | 1 | 1 | 1 | 1
13 | CCCCCCCCCC(=O)OC1=C(c2cc(C)ccc2C)C(=O)c2ccccc21 [reference compound] | – | – | – | – | – | – | – | – | 500 µg/mL (≈ 1240 µM) | 1 | 1 | 1 | 1 | 1 | 1 | 1
14 | CCCCC(CC)C(=O)OC1=C(c2ccccc2C)C(=O)c2ccccc21 (stereo not shown) [reference compound] | – | – | – | – | – | – | – | – | 500 µg/mL (≈ 1380 µM) | 1 | 1 | 1 | 1 | 1 | 1 | 1
